Test results taken from PMC5414857 (Toxicological Sciences, 2017).

Biological target: bile salt export pump (BSEP) (Homo sapiens, UniProt O95342)
Type: biochemical

Sequence of bile salt export pump (BSEP) (O95342 whole entry): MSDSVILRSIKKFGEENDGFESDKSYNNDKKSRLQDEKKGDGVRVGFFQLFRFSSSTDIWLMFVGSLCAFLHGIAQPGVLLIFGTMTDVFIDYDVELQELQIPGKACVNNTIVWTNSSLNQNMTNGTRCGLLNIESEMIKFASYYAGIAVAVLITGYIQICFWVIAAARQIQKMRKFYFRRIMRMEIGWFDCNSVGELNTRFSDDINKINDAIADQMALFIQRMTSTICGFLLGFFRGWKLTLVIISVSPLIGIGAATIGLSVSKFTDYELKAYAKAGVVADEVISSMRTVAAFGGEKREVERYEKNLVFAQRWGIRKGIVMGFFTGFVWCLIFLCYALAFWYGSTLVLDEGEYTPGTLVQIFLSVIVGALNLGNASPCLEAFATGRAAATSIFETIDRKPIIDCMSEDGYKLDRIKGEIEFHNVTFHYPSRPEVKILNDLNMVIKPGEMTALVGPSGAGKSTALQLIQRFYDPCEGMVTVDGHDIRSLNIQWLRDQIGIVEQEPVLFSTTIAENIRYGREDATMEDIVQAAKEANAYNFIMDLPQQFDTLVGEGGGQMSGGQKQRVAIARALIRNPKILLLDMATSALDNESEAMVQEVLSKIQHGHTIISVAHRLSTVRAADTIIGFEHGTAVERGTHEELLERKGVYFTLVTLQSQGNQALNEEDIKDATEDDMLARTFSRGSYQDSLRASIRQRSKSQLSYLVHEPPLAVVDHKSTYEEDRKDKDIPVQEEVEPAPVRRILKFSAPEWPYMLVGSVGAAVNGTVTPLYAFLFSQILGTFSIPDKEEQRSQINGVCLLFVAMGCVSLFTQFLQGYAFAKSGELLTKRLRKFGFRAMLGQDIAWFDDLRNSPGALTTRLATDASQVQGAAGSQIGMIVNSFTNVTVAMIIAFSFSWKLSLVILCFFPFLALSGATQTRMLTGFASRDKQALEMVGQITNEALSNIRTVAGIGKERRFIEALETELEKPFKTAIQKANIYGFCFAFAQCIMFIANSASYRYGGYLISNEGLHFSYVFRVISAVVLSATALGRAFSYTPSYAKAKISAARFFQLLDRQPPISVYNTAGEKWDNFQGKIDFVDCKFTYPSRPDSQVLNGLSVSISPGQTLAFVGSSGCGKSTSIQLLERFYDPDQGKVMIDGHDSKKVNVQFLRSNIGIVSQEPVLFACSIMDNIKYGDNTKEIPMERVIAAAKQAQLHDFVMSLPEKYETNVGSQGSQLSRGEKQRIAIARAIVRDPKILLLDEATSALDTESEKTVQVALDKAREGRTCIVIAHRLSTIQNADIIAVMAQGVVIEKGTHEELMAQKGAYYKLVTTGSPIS

## Cc1cc(OCCCS(C)(=O)=O)cc(C)c1-c1cccc(COc2ccc3c(c2)OC[C@H]3CC(=O)O)c1 [TAK-875]
  IC50: 14.3 µM
